Reference: PMC6095626, “Screening of the Pathogen Box for inhibitors with dual efficacy against Giardia lamblia and Cryptosporidium parvum” (PLoS Neglected Tropical Diseases, 2018)

Experiments:
[1] = test system: G. lamblia trophozoites (luciferase expressing, WBC6); assay: microbe, parasite or virus in culture; type: cell-based, Giardia lamblia; conditions: initial Pathogen Box screen, single concentration 16 µM, inhibition compared to DMSO wells
Experimental: Trophozoites were harvested by chilling cultures on ice for 30 minutes and plated by adding 150 μL per well at a concentration of 250,000 cells/mL. Metronidazole (Sigma, St. Louis, MO) was used as a control and was serially diluted 1:2 from 40 μM to 0.04 μM and 150 μL was added to the 150 μL of the G. lamblia trophozoites. Plates were covered in plastic low-evaporation lids, sealed in individual anaerobic BD GasPak Bio-Bags (Becton Dickinson, San Jose, CA) and incubated at 37 °C for 24 hours. […] A duplicate plate was concurrently set up and assayed using a MOXI Z Mini Automated Cell Counter Kit (Orflo, Ketchum, ID). Results obtained from the bioluminescence assay and the MOXI counter data were compared to evaluate their correlation to each another. Albendazole (Sigma, St. Louis, MO), an alternative giardiasis therapeutic, was assayed in concentrations from 4 μM to 0.004 μM with only the luciferase expressing G. lamblia cells. […]

[2] = test system: C. parvum (UGA1 Nluc expressing strain in HCT-8 cells); assay: microbe, parasite or virus in culture; type: cell-based, Cryptosporidium parvum; conditions: for Crypto (10 uM) Mean % inhibition: initial Pathogen Box screen, single concentration 10 µM, inhibition compared to DMSO wells
Experimental: Growth inhibition and EC50 determination assays were performed using UGA1 Nluc expressing C. parvum strain in HCT-8 cells (ATCC^©, Manassas, VA) as previously described. HCT-8 cells were inoculated onto 96-well plates and allowed to grow for 48 hours to 90–100% confluence and then treated with single concentration (10 μM) or serially diluted compounds prior to oocyst infection. C. parvum oocysts were incubated for 10 minutes in 10% bleach at room temperature and then washed with DPBS. […] The cell monolayers were lysed for 1 hour before adding Nano-Glo® luciferase reagent (Promega, Madison, WI), and measuring relative luminescence units (RLU) in an EnVision Plate Reader (Perkin Elmer, Waltham, MA). Several parameters, including reproducibility and reliability, were previously evaluated to optimize this assay for low and high-throughput (HTP) screening of small molecule compounds against C. parvum. EC50 values were calculated using Prism 7 software (GraphPad Software, San Diego, CA).
C. parvum screening against the Pathogen Box compounds was performed as previously described starting at a concentration of 10 μM [23].

Row | Structure (SMILES) | Giardia (16 uM) Mean % inhibition [1] | Crypto (10 uM) Mean % inhibition [2] | C. parvum cell growth inhibition in the initial screen ([2]; 10 μM, 48 hours) | EC50 ([2]; Nluc C. parvum in HCT-8 cells, 48 hours, read-out: C. parvum EC50)
1 | Cc1cc(Nc2ccncc2)n2nc(C)c(-c3ccccc3Cl)c2n1 [MMV016136] | X* (Mean or standard deviation are negative but not significantly different from the control to be a growth promoter) | 46% | – | –
2 | Cc1ccc(-c2cc(C(=O)Nc3cccnc3)c3cc(Br)ccc3n2)cc1 [MMV016838] | 63% | 42% | – | –
3 | Cc1cc(C)n2nc(C(=O)Nc3cc(C(F)(F)F)ccc3N3CCOCC3)nc2n1 [MMV019087] | X* (Mean or standard deviation are negative but not significantly different from the control to be a growth promoter) | 35% | – | –
4 | Cc1ccc2c(c1C)NC(=O)C21NN=C(c2ccccc2)S1 (stereo not shown) [MMV019189] | X* (Mean or standard deviation are negative but not significantly different from the control to be a growth promoter) | 95% | ≥ 95% | 2520 nM
5 | COc1ccc(C2CC(c3cccs3)=NN2C(=O)c2ccco2)cc1OC (stereo not shown) [MMV019234] | 20% | X* (Mean or standard deviation are negative but not significantly different from the control to be a growth promoter) | – | –
6 | CCC(NC(=O)c1ccccc1NC(=O)c1ccc(C)cc1)C(=O)OC (stereo not shown) [MMV019551] | 5.53% | 23% | – | –
7 | CCN(CC)S(=O)(=O)c1ccc(Cl)c(C(=O)Nc2ccc3nc(C)sc3c2)c1 [MMV019721] | 15% | 82% | – | –
8 | Cc1ccc(S(=O)(=O)N2CCN(C(=O)c3cc(-c4ccccc4)n[nH]3)CC2)cc1 [MMV019742] | X* (Mean or standard deviation are negative but not significantly different from the control to be a growth promoter) | X* (Mean or standard deviation are negative but not significantly different from the control to be a growth promoter) | – | –
9 | CCOc1ccccc1C(=O)Nc1cccc(-c2nc3ncccn3c2C)c1 [MMV019790] | X* (Mean or standard deviation are negative but not significantly different from the control to be a growth promoter) | X* (Mean or standard deviation are negative but not significantly different from the control to be a growth promoter) | – | –
10 | Cc1ccc2cc(C3NC(=O)c4ccccc4N3)c(Cl)nc2c1 (stereo not shown) [MMV019807] | 24% | 79% | – | –
11 | O=C(Nc1ccnc(-c2cccnc2)n1)c1cc(C(F)(F)F)cc(C(F)(F)F)c1 [MMV019838] | 16% | 71% | – | –
12 | Cc1nn(C)cc1C(C)Nc1nncc(-c2ccc(C(F)(F)F)cc2)n1 (stereo not shown) [MMV019993] | 22% | X* (Mean or standard deviation are negative but not significantly different from the control to be a growth promoter) | – | –
13 | COc1cccc(CC(=O)N2CCC(n3c(C)nc4ccc(F)cc43)CC2)c1 [MMV020081] | X* (Mean or standard deviation are negative but not significantly different from the control to be a growth promoter) | X* (Mean or standard deviation are negative but not significantly different from the control to be a growth promoter) | – | –
14 | CC1CC1C(=O)NC1CCN(CC2(c3ccccc3)CCCCC2)CC1 (stereo not shown) [MMV020120] | 2.27% | 66% | – | –
15 | CNC(=O)c1cc(S(=O)(=O)N2CCN(c3ccccn3)CC2)cs1 [MMV020136] | X* (Mean or standard deviation are negative but not significantly different from the control to be a growth promoter) | X* (Mean or standard deviation are negative but not significantly different from the control to be a growth promoter) | – | –
16 | Cc1cc(C(=O)Nc2ccc(-c3ccccc3)cc2)no1 [MMV020152] | 43% | X* (Mean or standard deviation are negative but not significantly different from the control to be a growth promoter) | – | –
17 | CC(C)NCC(=O)Nc1cccc(C(=O)Nc2cccc(C(F)(F)F)c2)c1 [MMV020165] | 81% | 45% | – | –

Row | Structure (SMILES) | Giardia (16 uM) Mean % inhibition [1] | Crypto (10 uM) Mean % inhibition [2] | C. parvum cell growth inhibition in the initial screen ([2]; 10 μM, 48 hours) | EC50 ([2]; Nluc C. parvum in HCT-8 cells, 48 hours, read-out: C. parvum EC50)
18 | Cc1ccc(NC(=O)c2cc(S(=O)(=O)NC(C)(C)C)ccc2C)nc1 [MMV020289] | 26% | X* (Mean or standard deviation are negative but not significantly different from the control to be a growth promoter) | – | –
19 | CC(C(=O)N1CCCC1)N1CCN(S(=O)(=O)c2ccc(C(C)(C)C)cc2)CC1 (stereo not shown) [MMV020291] | 13% | 61% | – | –
20 | Cc1nnc(NC(=O)c2cn(-c3ccccc3)nc2-c2ccccc2C)o1 [MMV020320] | X* (Mean or standard deviation are negative but not significantly different from the control to be a growth promoter) | 91% | – | –
21 | COc1ccccc1C(C)NCC(=O)Nc1cc(C(F)(F)F)ccc1Cl (stereo not shown) [MMV020321] | X* (Mean or standard deviation are negative but not significantly different from the control to be a growth promoter) | 83% | – | –
22 | CC1CCCN(C(=O)C(C)Nc2cc(Cl)ccc2N2CCOCC2)C1 (stereo not shown) [MMV020388] | 62% | X* (Mean or standard deviation are negative but not significantly different from the control to be a growth promoter) | – | –
23 | CC(C)C(C(=O)Nc1ccc(S(=O)(=O)N(C)C)cc1)c1ccc(Cl)cc1 (stereo not shown) [MMV020391] | 8% | 67% | – | –
24 | Cc1ccc(Oc2ccc(NC(=O)CNc3ccccc3N3CCCC3=O)cc2)cc1 [MMV020512] | X* (Mean or standard deviation are negative but not significantly different from the control to be a growth promoter) | 80% | – | –
25 | COc1ccccc1CNC(=O)c1cc(C2CC2)nc2c1cnn2C(C)C [MMV020517] | X* (Mean or standard deviation are negative but not significantly different from the control to be a growth promoter) | X* (Mean or standard deviation are negative but not significantly different from the control to be a growth promoter) | – | –
26 | Cc1cc2ccccc2n1CC(=O)N1CC(C(=O)N2CCCCC2)Oc2ccccc21 (stereo not shown) [MMV020520] | 6.36% | 68% | – | –
27 | O=C(NC1CC1)c1ccc(N2CCOc3ccc(Cl)cc32)s1 [MMV020537] | 4.66% | 55% | – | –
28 | CC(C)C(NC(=O)Cc1cccc2ccccc12)C(=O)Nc1cccc(C#N)c1 (stereo not shown) [MMV020591] | 16% | 55% | – | –
29 | Cc1noc(C)c1C(=O)N1CCCC(c2[nH]c3c(C)cccc3c2-c2ccncc2)C1 (stereo not shown) [MMV020623] | X* (Mean or standard deviation are negative but not significantly different from the control to be a growth promoter) | 43% | – | –
30 | COc1ccc(-c2cncc3ccc(C(=O)NCCCn4ccnc4)nc23)cc1 [MMV020670] | 19% | 42% | – | –
31 | COc1ccc(Cl)cc1NC(=O)CN(C)C(=O)c1cnn(-c2ccccc2)n1 [MMV020710] | 7.5% | 43% | – | –
32 | CC(C)(C)c1cc(C(=O)Nc2cccnc2)cc(C(=O)Nc2cccnc2)c1 [MMV020982] | 10% | 67% | – | –
33 | c1ccc(-c2nc(NC3CCCCC3)cc(C3CC3)n2)nc1 [MMV021013] | 65% | 92% | – | –
34 | CO/C=C(\C(=O)OC)c1ccccc1Oc1cc(Oc2ccccc2C#N)ncn1 [MMV021057] | 3.75% | 51% | – | –
